We go through 24 compounds from patent US7517873B2, “Substituted pyrimidodiazepines” (Hoffman-La Roche Inc., priority 2007, dated 2009).

The target of the assay is T1, GST-PLK1 (Homo sapiens, UniProt P53350).
T1 construct: Full-length, active GST-PLK1 is purified from Sf9 insect cells; made in house; host or cells: Sf9 insect cells
T1 sequence (P53350 whole entry): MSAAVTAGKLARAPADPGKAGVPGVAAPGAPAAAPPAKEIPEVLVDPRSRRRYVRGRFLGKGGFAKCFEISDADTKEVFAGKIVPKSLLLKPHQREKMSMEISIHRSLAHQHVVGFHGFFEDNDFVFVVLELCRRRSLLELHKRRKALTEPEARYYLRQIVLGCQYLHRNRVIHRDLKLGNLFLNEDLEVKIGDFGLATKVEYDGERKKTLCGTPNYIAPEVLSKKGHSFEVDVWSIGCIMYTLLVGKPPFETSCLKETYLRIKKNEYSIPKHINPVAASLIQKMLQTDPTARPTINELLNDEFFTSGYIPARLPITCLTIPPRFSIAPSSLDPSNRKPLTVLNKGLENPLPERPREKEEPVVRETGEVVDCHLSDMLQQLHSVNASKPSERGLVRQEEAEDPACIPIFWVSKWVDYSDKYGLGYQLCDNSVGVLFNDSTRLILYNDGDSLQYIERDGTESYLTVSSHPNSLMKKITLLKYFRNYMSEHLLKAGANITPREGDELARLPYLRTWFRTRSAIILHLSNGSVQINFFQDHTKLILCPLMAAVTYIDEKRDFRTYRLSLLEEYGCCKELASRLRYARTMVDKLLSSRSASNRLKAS
The experiment in a line: Biochemical Characterization Assay: GST-PLK1 kinase HTRF assay with GST-p53 substrate. To be noted: full-length GST-PLK1, GST-p53 and ATP, 37° C. for 35 minutes, HTRF signal. The protocol: Biochemical Characterization Assay
Full-length, active GST-PLK1 is purified from Sf9 insect cells, and full-length GST-p53 is purified from E. coli. Anti-phospho p53 antibody is from Cell Signaling Technology. Europium-conjugated anti-rabbit antibody is from PerkinElmer Life and Analytical Sciences. APC-conjugated anti-GST antibody is from Prozyme.
To assay compounds of the invention, two microliters of test compound (0.6 nM-4 mM) in DMSO or plain DMSO for control wells, 38 microliters of 20 mM HEPES pH 7, 50 mM NaCl, 10 mM MgCl2, 0.5 mM TCEP, 0.1 mM sodium orthovanadate, 0.1 mg/mL BSA, and 0.05% Triton X-100 (Kinase Assay Buffer) are added. […] Six microliters of GST-PLK1 (3 ug/mL) in Kinase Assay Buffer are then added and the solution incubated at 37° C. for 35 minutes. Six microliters of solution containing 43 mM EDTA to stop the reaction and a 1:600 dilution of anti-phospho-p53 antibody in 20 mM HEPES pH 7, 50 mM NaCl, and 0.5 mg/mL BSA (Antibody Binding Buffer) are added and the solution incubated at 37° C. for 30 minutes. […] The HTRF signal is read on an Envision reader from PerkinElmer Life and Analytical Sciences.
`COc1cc(C(=O)NC2CCN(C)CC2)ccc1Nc1ncc2c(n1)N(C1CCC(C)C1)CCC(=O)N2C` (racemic) [I-58, (rac)-3-Methoxy-4-[5-methyl-9-(3-methyl-cyclopentyl)-6-oxo-6,7,8,9-tetrahydro-5H-pyrimido[4,5-b][1,4]diazepin-2-ylamino]-N-(1-methyl-piperidin-4-yl)-benzamide] came in with an IC50 below 0.5 µM.

Regarding `COc1cc(C(=O)NC2CCN(C)CC2)ccc1Nc1ncc2c(n1)N(C1CCCC1(C)C)CCC(=O)N2C` (racemic) [I-59, (rac)-4-[9-(2,2-Dimethyl-cyclopentyl)-5-methyl-6-oxo-6,7,8,9-tetrahydro-5H-pyrimido[4,5-b][1,4]diazepin-2-ylamino]-3-methoxy-N-(1-methyl-piperidin-4-yl)-benzamide], the IC50 was below 0.5 µM.

The compound `C=CCN1CC(C)C(=O)N(C)c2cnc(Nc3ccc(C(=O)NC4CCN(C)CC4)cc3OC)nc21` (racemic) [I-65, (rac)-4-(9-Allyl-5,7-dimethyl-6-oxo-6,7,8,9-tetrahydro-5H-pyrimido[4,5-b][1,4]diazepin-2-ylamino)-3-methoxy-N-(1-methyl-piperidin-4-yl)-benzamide] had an IC50 below 0.5 µM.

Take `COc1cc(C(=O)NC2CCN(C)CC2)ccc1N(C)c1ncc2c(n1)N(C1CCCCC1)CC(C)C(=O)N2C` (racemic) [I-66, (rac)-4-[(9-Cyclohexyl-5,7-dimethyl-6-oxo-6,7,8,9-tetrahydro-5H-pyrimido[4,5-b][1,4]diazepin-2-yl)-methyl-amino]-3-methoxy-N-(1-methyl-piperidin-4-yl)-benzamide]: the IC50 is above 5 µM.

`COc1cc(C(=O)NC2CCN(C)CC2)ccc1Nc1ncc2c(n1)N1CCCC(C1)C(=O)N2C` (racemic) [I-67, (rac)-3-Methoxy-4-(8-methyl-9-oxo-1,3,5,8-tetraaza-tricyclo[8.3.1.0*2,7*]tetradeca-2,4,6-trien-4-ylamino)-N-(1-methyl-piperidin-4-yl)-benzamide] returned an IC50 above 5 µM.

As to `COc1cc(C(=O)NC2CCN(C)CC2)ccc1Nc1ncc2c(n1)N(C1CCCC1)C1CCCC1C(=O)N2C` (racemic) [I-68, (rac)-4-(4-Cyclopentyl-9-methyl-10-oxo-1,2,3,3a,4,9,10,10a-octahydro-4,5,7,9-tetraaza-benzo[f]azulen-6-ylamino)-3-methoxy-N-(1-methyl-piperidin-4-yl)-benzamide], the IC50 is below 0.5 µM.

On to `CC1CN(C2CCCC2)c2nc(Nc3cccc(C(=O)NC4CCN(C)CC4)c3)ncc2N(C)C1=O` (racemic) [I-69, (rac)-3-(9-Cyclopentyl-5,7-dimethyl-6-oxo-6,7,8,9-tetrahydro-5H-pyrimido[4,5-b][1,4]diazepin-2-ylamino)-N-(1-methyl-piperidin-4-yl)-benzamide], for which the IC50 was 0.5 to 5 µM.

As for `CC1CN(C2CCCC2)c2nc(Nc3cccc(C(=O)NCCCN(C)C)c3)ncc2N(C)C1=O` (racemic) [I-70, (rac)-3-(9-Cyclopentyl-5,7-dimethyl-6-oxo-6,7,8,9-tetrahydro-5H-pyrimido[4,5-b][1,4]diazepin-2-ylamino)-N-(3-dimethylamino-propyl)-benzamide], the IC50 was 0.5 to 5 µM.

`CC1CN(C2CCCC2)c2nc(Nc3cccc(C(=O)NC4CCOCC4)c3)ncc2N(C)C1=O` (racemic) [I-71, (rac)-3-(9-Cyclopentyl-5,7-dimethyl-6-oxo-6,7,8,9-tetrahydro-5H-pyrimido[4,5-b][1,4]diazepin-2-ylamino)-N-(tetrahydro-pyran-4-yl)-benzamide]: the IC50 was 0.5 to 5 µM.

In turn, `CC1CN(C2CCCC2)c2nc(Nc3cccc(C(=O)Nc4cccnc4)c3)ncc2N(C)C1=O` (racemic) [I-72, (rac)-3-(9-Cyclopentyl-5,7-dimethyl-6-oxo-6,7,8,9-tetrahydro-5H-pyrimido[4,5-b][1,4]diazepin-2-ylamino)-N-pyridin-3-yl-benzamide] yielded an IC50 below 0.5 µM.

In the case of `COc1ccc(C(=O)NCCCN(C)C)cc1Nc1ncc2c(n1)N(C1CCCC1)CC(C)C(=O)N2C` (racemic) [I-73, (rac)-3-(9-Cyclopentyl-5,7-dimethyl-6-oxo-6,7,8,9-tetrahydro-5H-pyrimido[4,5-b][1,4]diazepin-2-ylamino)-N-(3-dimethylamino-propyl)-4-methoxy-benzamide], the IC50 is below 0.5 µM.

Consider `COc1ccc(C(=O)NC2CCOCC2)cc1Nc1ncc2c(n1)N(C1CCCC1)CC(C)C(=O)N2C` (racemic) [I-74, (rac)-3-(9-Cyclopentyl-5,7-dimethyl-6-oxo-6,7,8,9-tetrahydro-5H-pyrimido[4,5-b][1,4]diazepin-2-ylamino)-4-methoxy-N-(tetrahydro-pyran-4-yl)-benzamide], for which the IC50 is below 0.5 µM.

For `CC1CN(C2CCCC2)c2nc(Nc3ccc(OCc4ccccc4)cc3)ncc2N(C)C1=O` (racemic) [I-75, (rac)-2-(4-Benzyloxy-phenylamino)-9-cyclopentyl-5,7-dimethyl-5,7,8,9-tetrahydro-pyrimido[4,5-b][1,4]diazepin-6-one], the 50% inhibitory concentration (IC50) is above 5 µM.

The compound `CC1CN(C2CCCC2)c2nc(Nc3ccc4oc(-c5ccncc5)nc4c3)ncc2N(C)C1=O` (racemic) [I-76, (rac)-9-Cyclopentyl-5,7-dimethyl-2-(2-pyridin-4-yl-benzooxazol-5-ylamino)-5,7,8,9-tetrahydro-pyrimido[4,5-b][1,4]diazepin-6-one] had an IC50 above 5 µM.

On to `CC1CN(C2CCCC2)c2nc(Nc3ccc4oc(-c5cccnc5)nc4c3)ncc2N(C)C1=O` (racemic) [I-77, (rac)-9-Cyclopentyl-5,7-dimethyl-2-(2-pyridin-3-yl-benzooxazol-5-ylamino)-5,7,8,9-tetrahydro-pyrimido[4,5-b][1,4]diazepin-6-one], for which the IC50 is above 5 µM.

Turning to `COc1ccc(NC(=O)c2ccccc2)cc1Nc1ncc2c(n1)N(C1CCCC1)CC(C)C(=O)N2C` (racemic) [I-78, (rac)-N-[3-(9-Cyclopentyl-5,7-dimethyl-6-oxo-6,7,8,9-tetrahydro-5H-pyrimido[4,5-b][1,4]diazepin-2-ylamino)-4-methoxy-phenyl]-benzamide], the IC50 was 0.5 to 5 µM.

Take `COc1cc(C(=O)NN)ccc1Nc1ncc2c(n1)N(C1CCCC1)CC(C)C(=O)N2C` (racemic) [I-79, (rac)-4-(9-Cyclopentyl-5,7-dimethyl-6-oxo-6,7,8,9-tetrahydro-5H-pyrimido[4,5-b][1,4]diazepin-2-ylamino)-3-methoxy-benzoic acid hydrazide]: the IC50 was below 0.5 µM.

`COc1ccc(NC(=O)C2CCN(C(C)=O)CC2)cc1Nc1ncc2c(n1)N(C1CCCC1)CC(C)C(=O)N2C` (racemic) [I-80, (rac)-1-Acetyl-piperidine-4-carboxylic acid [3-(9-cyclopentyl-5,7-dimethyl-6-oxo-6,7,8,9-tetrahydro-5H-pyrimido[4,5-b][1,4]diazepin-2-ylamino)-4-methoxy-phenyl]-amide] gave an IC50 of 0.5 to 5 µM.

The compound `CCN1CCC(NC(=O)c2ccc(Nc3ncc4c(n3)N(C3CCCC3)CC(C)C(=O)N4C)cc2Cl)CC1` (racemic) [I-81, (rac)-2-Chloro-4-(9-cyclopentyl-5,7-dimethyl-6-oxo-6,7,8,9-tetrahydro-5H-pyrimido[4,5-b][1,4]diazepin-2-ylamino)-N-(1-ethyl-piperidin-4-yl)-benzamide] came in with an IC50 of 0.5 to 5 µM.

In turn, `CC1CN(C2CCCC2)c2nc(Nc3ccc(C(=O)Nc4cccnc4)c(Cl)c3)ncc2N(C)C1=O` (racemic) [I-82, (rac)-2-Chloro-4-(9-cyclopentyl-5,7-dimethyl-6-oxo-6,7,8,9-tetrahydro-5H-pyrimido[4,5-b][1,4]diazepin-2-ylamino)-N-pyridin-3-yl-benzamide] returned an IC50 above 5 µM.

Take `CC1CN(C2CCCC2)c2nc(Nc3ccc(C(=O)NCCCN(C)C)c(Cl)c3)ncc2N(C)C1=O` (racemic) [I-83, (rac)-2-Chloro-4-(9-cyclopentyl-5,7-dimethyl-6-oxo-6,7,8,9-tetrahydro-5H-pyrimido[4,5-b][1,4]diazepin-2-ylamino)-N-(3-dimethylamino-propyl)-benzamide]: the IC50 lay in the range of 0.5 to 5 µM.

For `CC1CN(C2CCCC2)c2nc(Nc3ccc(C(=O)NC4CCN(C)CC4)c(Cl)c3)ncc2N(C)C1=O` (racemic) [I-84, (rac)-2-Chloro-4-(9-cyclopentyl-5,7-dimethyl-6-oxo-6,7,8,9-tetrahydro-5H-pyrimido[4,5-b][1,4]diazepin-2-ylamino)-N-(1-methyl-piperidin-4-yl)-benzamide], the IC50 is below 0.5 µM.

On to `CC1CN(C2CCCC2)c2nc(Nc3ccc(C(=O)NC4CCCCC4)c(Cl)c3)ncc2N(C)C1=O` (racemic) [I-85, (rac)-2-Chloro-N-cyclohexyl-4-(9-cyclopentyl-5,7-dimethyl-6-oxo-6,7,8,9-tetrahydro-5H-pyrimido[4,5-b][1,4]diazepin-2-ylamino)-benzamide], for which the IC50 was above 5 µM.

Compound `CC1CN(C2CCCC2)c2nc(Nc3ccc(C(=O)Nc4ccncc4)c(Cl)c3)ncc2N(C)C1=O` (racemic) [I-86, (rac)-2-Chloro-4-(9-cyclopentyl-5,7-dimethyl-6-oxo-6,7,8,9-tetrahydro-5H-pyrimido[4,5-b][1,4]diazepin-2-ylamino)-N-pyridin-4-yl-benzamide] had an IC50 above 5 µM.
